The NIST ThermoML archive (doi:10.1021/acs.jced.8b01146)
Where “and” joins values, the source holds several entries; their conditions need not be identical. Equal values may be shown once.

Key:
[1] = xn = mol fraction of the nth substance listed; conditions: 100 kPa, Liquid, Vibrating tube method
[2] = excess molar enthalpy (molar enthalpy of mixing); xn = mol fraction of the nth substance listed; conditions: 100 kPa, Liquid, Calvet calorimetry

CC1CCC(=O)O1 (stereo not drawn) [γ-valerolactone] + O
Conditions | excess molar enthalpy, [2] | mass density, [1]
288.15 K, x1 = 0.000948 | -0.00117 kcal/mol | 999.61 kg/m3
288.15 K, x1 = 0.001895 | -0.0023 kcal/mol | 1000.12 kg/m3
288.15 K, x1 = 0.00284 | -0.00341 kcal/mol | 1000.62 kg/m3
288.15 K, x1 = 0.003783 | -0.00447 kcal/mol | 1001.12 kg/m3
288.15 K, x1 = 0.004724 | -0.00551 kcal/mol | 1001.62 kg/m3
288.15 K, x1 = 0.005663 | -0.00652 kcal/mol | 1002.11 kg/m3
298.15 K, x1 = 0.000947 | -0.000872 kcal/mol | 997.5 kg/m3
298.15 K, x1 = 0.001893 | -0.00171 kcal/mol | 997.952 kg/m3 and 997.948 kg/m3
298.15 K, x1 = 0.002836 | -0.00252 kcal/mol | 998.397 kg/m3
298.15 K, x1 = 0.002837 | -0.00253 kcal/mol | 998.399 kg/m3
298.15 K, x1 = 0.003778 | -0.00331 kcal/mol | 998.844 kg/m3
298.15 K, x1 = 0.003779 | -0.00331 kcal/mol | 998.843 kg/m3
298.15 K, x1 = 0.004718 | -0.00407 kcal/mol | 999.282 kg/m3
298.15 K, x1 = 0.004719 | -0.00406 kcal/mol | 999.28 kg/m3
298.15 K, x1 = 0.005658 | -0.00479 kcal/mol and -0.00481 kcal/mol | 999.717 kg/m3 and 999.723 kg/m3
308.15 K, x1 = 0.000947 | -0.000574 kcal/mol | 994.435 kg/m3
308.15 K, x1 = 0.001892 | -0.00113 kcal/mol | 994.839 kg/m3
308.15 K, x1 = 0.001893 | -0.00113 kcal/mol | 994.839 kg/m3
308.15 K, x1 = 0.002835 | -0.00165 kcal/mol | 995.239 kg/m3
308.15 K, x1 = 0.002836 | -0.00165 kcal/mol | 995.239 kg/m3
308.15 K, x1 = 0.003777 | -0.00215 kcal/mol | 995.637 kg/m3
308.15 K, x1 = 0.003778 | -0.00215 kcal/mol | 995.634 kg/m3
308.15 K, x1 = 0.004716 | -0.00262 kcal/mol | 996.023 kg/m3
308.15 K, x1 = 0.004718 | -0.00261 kcal/mol | 996.023 kg/m3
308.15 K, x1 = 0.005656 | -0.00306 kcal/mol and -0.00308 kcal/mol | 996.412 kg/m3 and 996.415 kg/m3
318.15 K, x1 = 0.000946 | -0.000275 kcal/mol | 990.573 kg/m3
318.15 K, x1 = 0.000947 | -0.000275 kcal/mol | 990.572 kg/m3
318.15 K, x1 = 0.001891 | -0.000526 kcal/mol | 990.933 kg/m3
318.15 K, x1 = 0.001892 | -0.000526 kcal/mol | 990.933 kg/m3
318.15 K, x1 = 0.002835 | -0.000758 kcal/mol | 991.289 kg/m3
318.15 K, x1 = 0.003776 | -0.00097 kcal/mol | 991.639 kg/m3
318.15 K, x1 = 0.003777 | -0.000966 kcal/mol | 991.641 kg/m3
318.15 K, x1 = 0.004716 | -0.00115 kcal/mol and -0.00114 kcal/mol | 991.985 kg/m3 and 991.983 kg/m3
318.15 K, x1 = 0.005655 | -0.00131 kcal/mol and -0.00132 kcal/mol | 992.329 kg/m3 and 992.332 kg/m3

O=C1CCCO1 [γ-butyrolactone] + O
Conditions | excess molar enthalpy, [2] | mass density, [1]
288.15 K, x1 = 0.00118 | -0.000825 kcal/mol | 999.977 kg/m3
288.15 K, x1 = 0.001181 | -0.000827 kcal/mol | 999.978 kg/m3
288.15 K, x1 = 0.002358 | -0.00163 kcal/mol | 1000.85 kg/m3
288.15 K, x1 = 0.003533 | -0.0024 kcal/mol | 1001.72 kg/m3
288.15 K, x1 = 0.003534 | -0.0024 kcal/mol | 1001.72 kg/m3
288.15 K, x1 = 0.004705 | -0.00315 kcal/mol | 1002.58 kg/m3
288.15 K, x1 = 0.004706 | -0.00315 kcal/mol | 1002.59 kg/m3
288.15 K, x1 = 0.005874 | -0.00388 kcal/mol | 1003.43 kg/m3
288.15 K, x1 = 0.005876 | -0.00387 kcal/mol | 1003.43 kg/m3
288.15 K, x1 = 0.007042 | -0.00458 kcal/mol | 1004.27 kg/m3
288.15 K, x1 = 0.007044 | -0.00458 kcal/mol | 1004.28 kg/m3
298.15 K, x1 = 0.001179 | -0.000598 kcal/mol | 997.864 kg/m3
298.15 K, x1 = 0.002356 | -0.00117 kcal/mol | 998.672 kg/m3
298.15 K, x1 = 0.00353 | -0.00171 kcal/mol | 999.474 kg/m3
298.15 K, x1 = 0.004701 | -0.00224 kcal/mol | 1000.27 kg/m3
298.15 K, x1 = 0.005869 | -0.00275 kcal/mol | 1001.06 kg/m3
298.15 K, x1 = 0.007036 | -0.00324 kcal/mol | 1001.84 kg/m3
308.15 K, x1 = 0.001179 | -0.000363 kcal/mol and -0.000361 kcal/mol | 994.794 kg/m3 and 994.797 kg/m3
308.15 K, x1 = 0.002356 | -0.0007 kcal/mol and -0.000698 kcal/mol | 995.554 kg/m3 and 995.552 kg/m3
308.15 K, x1 = 0.00353 | -0.00101 kcal/mol | 996.301 kg/m3
308.15 K, x1 = 0.003531 | -0.00101 kcal/mol | 996.302 kg/m3
308.15 K, x1 = 0.004702 | -0.00131 kcal/mol | 997.038 kg/m3
308.15 K, x1 = 0.004703 | -0.0013 kcal/mol | 997.039 kg/m3
308.15 K, x1 = 0.00587 | -0.00158 kcal/mol | 997.774 kg/m3
308.15 K, x1 = 0.005871 | -0.00158 kcal/mol | 997.78 kg/m3
308.15 K, x1 = 0.007038 | -0.00184 kcal/mol | 998.505 kg/m3 and 998.496 kg/m3
318.15 K, x1 = 0.001181 | -0.000116 kcal/mol and -0.000115 kcal/mol | 990.926 kg/m3 and 990.925 kg/m3
318.15 K, x1 = 0.002359 | -0.000209 kcal/mol and -0.000208 kcal/mol | 991.631 kg/m3 and 991.634 kg/m3
318.15 K, x1 = 0.003534 | -0.000283 kcal/mol and -0.000286 kcal/mol | 992.336 kg/m3 and 992.333 kg/m3
318.15 K, x1 = 0.004706 | -0.000346 kcal/mol | 993.03 kg/m3
318.15 K, x1 = 0.004707 | -0.000343 kcal/mol | 993.03 kg/m3
318.15 K, x1 = 0.005875 | -0.00039 kcal/mol | 993.721 kg/m3
318.15 K, x1 = 0.005876 | -0.000386 kcal/mol | 993.713 kg/m3
318.15 K, x1 = 0.007043 | -0.000418 kcal/mol | 994.396 kg/m3
318.15 K, x1 = 0.007044 | -0.000413 kcal/mol | 994.396 kg/m3
